The values below come from ChEMBL document CHEMBL1641381, “Rapid access to new bioconjugates of betulonic acid via click chemistry” (2011).

The structures appear in SMILES notation.

What all share (format): functional
Assay [1] has as its system Mus musculus. Briefly: Antiinflammatory activity against histamine-induced mouse edema model assessed as inflammation index 20 mg/kg, po (untreated control = 32.6+/-3.1%).
In assay [2] the test system is Mus musculus. Briefly: Antiinflammatory activity against histamine-induced mouse edema model assessed as edema size 20 mg/kg, po (untreated control = 100%).
The subject of assay [3] is Mus musculus. The assay can be described thus: Antiinflammatory activity against histamine-induced mouse edema model assessed as antiinflammatory effect 20 mg/kg, po (untreated control = 0%).
The subject of assay [4] is Mus musculus. Briefly: Antiinflammatory activity against histamine-induced mouse edema model assessed as inflammation index 50 mg/kg, po (untreated control = 32.6+/-3.1%).
The test system of assay [5] is Mus musculus. Briefly: Antiinflammatory activity against histamine-induced mouse edema model assessed as edema size 50 mg/kg, po (untreated control = 100%).
In assay [6] the test system is Mus musculus. Briefly: Antiinflammatory activity against histamine-induced mouse edema model assessed as antiinflammatory effect 50 mg/kg, po (untreated control = 0%).
Assay [7] deals with Mus musculus. The assay can be described thus: Antioxidant activity agains CCl4-induced hepatitis mouse model assessed as TBARS level in serum at 20 mg/kg, po (untreated control = 100%).
Assay [8] deals with Mus musculus. The assay can be described thus: Antioxidant activity agains CCl4-induced hepatitis mouse model at 20 mg/kg, po (untreated control = 0%).

As to `C=C(C)[C@@H]1CC[C@]2(C(=O)Nc3ccc(-c4cn(-c5ccc(C(C)=O)cc5)nn4)cc3)CC[C@]3(C)[C@H](CC[C@@H]4[C@@]5(C)CCC(=O)C(C)(C)[C@@H]5CC[C@]43C)[C@@H]12`, the Activity in assay [1] is reported as 35.4%; in assay [3] it was 0%; in assay [4], 24.2%; in assay [6], 26%; in assay [7], 40%; in assay [8] it was 60%. The level, % of control at 20 mg/kg in assay [2] is 109%. For the same compound, the level, % of control at 50 mg/kg in assay [5] was 74.2%.

Turning to `C=C(C)[C@@H]1CC[C@]2(C(=O)Nc3ccc(-c4cn(-c5ccc(OC)cc5)nn4)cc3)CC[C@]3(C)[C@H](CC[C@@H]4[C@@]5(C)CCC(=O)C(C)(C)[C@@H]5CC[C@]43C)[C@@H]12`, the Activity in assay [1] is listed as 25.6%; in assay [3], 21%; in assay [4] it was 25.4%; in assay [6], 22%; in assay [7] it was 41%; in assay [8], 59%. Also, the level, % of control at 20 mg/kg in assay [2] stood at 78.5%. Also, the level, % of control at 50 mg/kg in assay [5] came out at 77.9%.

For `C=C(C)[C@@H]1CC[C@]2(C(=O)Nc3ccc(-c4cn(Cc5ccccc5)nn4)cc3)CC[C@]3(C)[C@H](CC[C@@H]4[C@@]5(C)CCC(=O)C(C)(C)[C@@H]5CC[C@]43C)[C@@H]12`, the Activity stood at 34.1% in assay [1]; 0% in assay [3]; 25.6% in assay [4]; 21% in assay [6]; 58% in assay [7]; 42% in assay [8]. In assay [2], the level, % of control at 20 mg/kg was determined as 105%. In addition, the level, % of control at 50 mg/kg in assay [5] was 78.5%.

On to `C=C(C)[C@@H]1CC[C@]2(C(=O)Nc3ccc(-c4cn(CCCCCC)nn4)cc3)CC[C@]3(C)[C@H](CC[C@@H]4[C@@]5(C)CCC(=O)C(C)(C)[C@@H]5CC[C@]43C)[C@@H]12`, for which the Activity was found to be 29% in assay [1]; 11% in assay [3]; 28.4% in assay [4]; 13% in assay [6]; 66% in assay [7]; 34% in assay [8]. Moreover, the level, % of control at 20 mg/kg in assay [2] is 89%. The level, % of control at 50 mg/kg in assay [5] amounted to 87.1%.

Consider `O=C1c2c(O)cc(O)cc2O[C@H](c2ccc(O)c(O)c2)[C@H]1O` [(+)-TAXIFOLIN], for which the Activity in assay [7] amounted to 57%; in assay [8] it was 43%.

On to `COc1ccc2c(c1)c(CC(=O)O)c(C)n2C(=O)c1ccc(Cl)cc1` [INDOMETHACIN], for which the Activity in assay [1] amounted to 12.2%; in assay [3], 63%. Further, in assay [2], the level, % of control at 20 mg/kg came out at 37.4%.
